The record followed here is patent US12077503B2, “Substituted cyclic amides and their use as herbicides” (FMC CORPORATION, priority 2015, dated 2024).

Where two headings read alike, the source gives them in different places.

Holding throughout (assay type): in vivo
For test [1], the system named is barnyardgrass (Echinochloa crus-galli). Kind of test: Test A preemergence. The note with it: Echinochloa crus-galli, pre-emergence, 240 h; for pest or weed control at 125 g/ha: 125 g ai/ha; for pest or weed control at 500 g/ha: 500 g ai/ha; for pest or weed control at 31 g/ha: 31 g ai/ha. In short, it runs like this:
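Seeded soil received test chemicals as a preemergence directed spray, and seedlings at one to two leaves, 2–10 cm tall, received them postemergence, in a non-phytotoxic, surfactant-containing solvent mixture. Pots were held in a greenhouse for approximately 10 d, then rated for injury from 0, no effect, to 100, complete control.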

For test [2], the system named is ducksalad (Heteranthera limosa). Kind of test: Test B flooded paddy test. The note with it: Heteranthera limosa, Flood, 250 g ai/ha, read-out: Ducksalad plant response rating. In short, it runs like this: (§1)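 Evaluation by eye, against controls, occurred 13–15 d post-treatment in a greenhouse, using a 0 (no effect) to 100 (complete control) scale. Application was into the paddy water, 3 cm deep over the soil, on 2-leaf plants.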

The test system of test [3] is barnyardgrass (Echinochloa crus-galli). Kind of test: Test B flooded paddy test. Particulars: Echinochloa crus-galli, Flood, 250 g ai/ha, read-out: Barnyardgrass plant response rating. In short, it runs like this:
as §1

A further test has as its system rice (Oryra sativa). Description: Test B flooded paddy test. Particulars: Oryza sativa, Flood, 250 g ai/ha, read-out: Rice plant response rating. In short, it runs like this: as §1
The test system of test [4] is sedge, umbrella (small-flower umbrella sedge, Cyperus difformis). Description: Test B flooded paddy test. The note with it: Cyperus difformis, Flood, 250 g ai/ha. In short, it runs like this:
as §1

[5] abbreviates: preemergence, visual rating after approx. 10 d, 0 to 100 scale where 0 is no effect and 100 is complete control, read-out: Plant response rating, Barnyardgrass.
Where [6] appears, read: preemergence, 0 to 100 scale, 0 = no effect, 100 = complete control, read-out: Plant response rating, Barnyardgrass.
The mark [7] stands for this setting: scale of 0 to 100 where 0 is no effect and 100 is complete control.
Where [8] appears, read: scale of 0 to 100 where 0 is no effect and 100 is complete control, read-out: Sedge, Umbrella plant response rating.
Setting [9] is: Preemergence, 0 to 100 scale (0 no effect, 100 complete control), read-out: Plant response rating, Barnyardgrass.
[10] abbreviates: preemergence, visual injury rating, 0 to 100 scale where 0 is no effect and 100 is complete control, approximately 10 d, read-out: Barnyardgrass plant response rating.
[11] abbreviates: preemergence, 0 to 100 scale where 0 is no effect and 100 is complete control, read-out: Barnyardgrass plant response rating.
Where [12] appears, read: 0 to 100 scale where 0 is no effect and 100 is complete control.
The mark [13] stands for this setting: 0 to 100 scale where 0 is no effect and 100 is complete control, read-out: Sedge, Umbrella plant response rating.

In the case of `Cc1ccc([C@H]2CNC(=O)[C@@H]2C(=O)Nc2cccc(F)c2F)c(F)c1` [Compound 720], the pest or weed control at 125 g/ha in test [1] (setting [5]) was 90%. Further, the pest or weed control at 500 g/ha in test [1] (setting [6]) turned out to be 100%. Moreover, the pest or weed control at 250 g/ha came out at 100% in test [2] (setting [7]), 30% in test [3] (setting [7]), 0% with rice (Oryra sativa) (setting [7]) and 0% in test [4] (setting [8]).

Take `CN1CC[C@@H](c2cccc(C(F)(F)F)c2)[C@H](C(=O)Nc2ccccc2F)C1=O` [Compound 794]: the pest or weed control at 125 g/ha in test [1] (setting [5]) amounted to 90%. Further, the pest or weed control at 31 g/ha in test [1] (setting [9]) came out at 70%. In addition, the pest or weed control at 250 g/ha in test [2] (setting [7]) was 30%; in test [3] (setting [7]), 40%; in the test on rice (Oryra sativa) (setting [7]), 20%; in test [4] (setting [8]) it was 0%.

On to `CSc1ccccc1NC(=O)[C@H]1C(=S)NC[C@@H]1c1ccc(C)c(C)c1` [Compound 766], for which the pest or weed control at 125 g/ha in test [1] (setting [5]) was 70%. The pest or weed control at 500 g/ha in test [1] (setting [6]) was 90%. The pest or weed control at 250 g/ha in test [2] (setting [7]) was found to be 85%; in test [3] (setting [7]), 0%; in the test with rice (Oryra sativa) (setting [7]), 0%; in test [4] (setting [8]), 60%.

For the compound `Cc1c(F)cccc1NC(=O)[C@H]1C(=O)N(C)C[C@@H]1c1ccc(OC(F)F)cc1` [Compound 1213], the pest or weed control at 125 g/ha in test [1] (setting [10]) amounted to 100%. In test [1] (setting [11]), the pest or weed control at 500 g/ha came to 100%. Besides, the pest or weed control at 250 g/ha was 100% in test [2] (setting [12]), 70% in test [3] (setting [12]), 20% in the test with rice (Oryra sativa) (setting [12]) and 0% in test [4] (setting [13]).

With `Cc1c(F)cccc1NC(=O)[C@H]1C(=O)N(C)C[C@@H]1c1ccc2c(c1)OC(F)(F)O2` [Compound 1252], the pest or weed control at 125 g/ha in test [1] (setting [10]) worked out at 100%. Further, in test [1] (setting [11]), the pest or weed control at 500 g/ha was found to be 100%. Further, the pest or weed control at 250 g/ha in test [2] (setting [12]) was determined as 100%; in test [3] (setting [12]), 65%; with rice (Oryra sativa) (setting [12]), 30%; in test [4] (setting [13]) it was 0%.

Consider `CSc1ccccc1NC(=O)[C@H]1C(=O)N(C)C[C@@H]1c1ccc(C(F)F)cc1` [Compound 799], for which the pest or weed control at 125 g/ha in test [1] (setting [5]) is 40%. The pest or weed control at 31 g/ha in test [1] (setting [9]) stood at 0%. In addition, the pest or weed control at 250 g/ha in test [2] (setting [7]) is 80%; in test [3] (setting [7]), 65%; in the test with rice (Oryra sativa) (setting [7]), 30%; in test [4] (setting [8]) it was 0%.

`CN1CC[C@H](c2cccc(OC(F)(F)F)c2)[C@@H](C(=O)Nc2cccc(Cl)c2F)C1=O` [Compound 810]: in test [1] (setting [5]), the pest or weed control at 125 g/ha was determined as 90%. Further, in test [1] (setting [9]), the pest or weed control at 31 g/ha was found to be 90%. Also, the pest or weed control at 250 g/ha in test [2] (setting [7]) was determined as 90%; in test [3] (setting [7]), 60%; with rice (Oryra sativa) (setting [7]), 0%; in test [4] (setting [8]), 0%.

`CN1C[C@H](c2ccc3c(c2)CCC3)[C@@H](C(=O)Nc2cccc(F)c2F)C1=O` [Compound 743]: the pest or weed control at 125 g/ha in test [1] (setting [5]) stood at 90%. For the same compound, the pest or weed control at 500 g/ha in test [1] (setting [6]) is 90%. Besides, the pest or weed control at 250 g/ha in test [2] (setting [7]) turned out to be 95%; in test [3] (setting [7]), 65%; in the test with rice (Oryra sativa) (setting [7]), 20%; in test [4] (setting [8]), 0%.

As to `Cc1cc([C@H]2CNC(=O)[C@@H]2C(=O)Nc2cccc(F)c2F)ccc1Cl` [Compound 790], in test [1] (setting [5]), the pest or weed control at 125 g/ha was 90%. For the same compound, the pest or weed control at 500 g/ha in test [1] (Preemergence, visual injury vs untreated controls after approximately 10 d, read-out: Barnyardgrass plant response rating (0 to 100 scale where 0 is no effect and 100 is complete control)) was found to be 90%. For the same compound, the pest or weed control at 250 g/ha in test [2] (setting [7]) turned out to be 100%; in test [3] (setting [7]) it was 40%; with rice (Oryra sativa) (setting [7]), 0%; in test [4] (setting [8]) it was 0%.

As to `Cc1ccc([C@H]2CNC(=S)[C@@H]2C(=O)Nc2cccc(F)c2C)cc1C` [Compound 764], the pest or weed control at 125 g/ha in test [1] (setting [5]) turned out to be 100%. In test [1] (setting [6]), the pest or weed control at 500 g/ha came out at 100%. Besides, the pest or weed control at 250 g/ha is 90% in test [2] (setting [7]), 50% in test [3] (setting [7]), 0% with rice (Oryra sativa) (setting [7]) and 0% in test [4] (setting [8]).

For `Cc1c(F)cccc1NC(=O)[C@H]1C(=O)N(C)C[C@@H]1c1ccc(F)c(Br)c1` [Compound 1211], the pest or weed control at 125 g/ha in test [1] (setting [10]) was determined as 100%. For the same compound, the pest or weed control at 500 g/ha in test [1] (setting [11]) was 100%. The pest or weed control at 250 g/ha in test [2] (setting [12]) came to 100%; in test [3] (setting [12]) it was 85%; in the test on rice (Oryra sativa) (setting [12]), 60%; in test [4] (setting [13]) it was 0%.

As to `Cc1cc([C@H]2CN(C)C(=O)[C@@H]2C(=O)Nc2ccc(F)c(F)c2F)ccc1F` [Compound 719], the pest or weed control at 125 g/ha in test [1] (setting [5]) stood at 90%. Moreover, the pest or weed control at 500 g/ha in test [1] (setting [6]) is 90%. For the same compound, the pest or weed control at 250 g/ha was determined as 100% in test [2] (setting [7]), 85% in test [3] (setting [7]), 0% in the test with rice (Oryra sativa) (setting [7]) and 0% in test [4] (setting [8]).

As to `CSc1ccccc1NC(=O)[C@H]1C(=O)N(C)C[C@@H]1c1cc(F)cc(F)c1` [Compound 738], in test [1] (setting [5]), the pest or weed control at 125 g/ha amounted to 90%. For the same compound, the pest or weed control at 500 g/ha in test [1] (setting [6]) stood at 100%. Moreover, the pest or weed control at 250 g/ha was determined as 100% in test [2] (setting [7]), 40% in test [3] (setting [7]), 0% in the test with rice (Oryra sativa) (setting [7]) and 0% in test [4] (setting [8]).

`CSc1ccccc1NC(=O)[C@H]1C(=O)N(C)C[C@@H]1c1cc(C)c(C)c(C)c1` [Compound 798]: the pest or weed control at 125 g/ha in test [1] (setting [5]) stood at 80%. Also, the pest or weed control at 31 g/ha in test [1] (setting [9]) came to 20%. Also, the pest or weed control at 250 g/ha in test [2] (setting [7]) came out at 50%; in test [3] (setting [7]) it was 75%; in the test with rice (Oryra sativa) (setting [7]), 40%; in test [4] (setting [8]) it was 0%.

For `CN1C[C@H](c2ccc3c(c2)CCO3)[C@@H](C(=O)Nc2ccc(F)c(F)c2F)C1=O` [Compound 1323], in test [1] (setting [11]), the pest or weed control at 500 g/ha is 90%. Further, the pest or weed control at 125 g/ha in test [1] (setting [9]) was determined as 90%. The pest or weed control at 250 g/ha was 85% in test [2] (setting [12]); 90% in test [3] (setting [12]); 10% in the test on rice (Oryra sativa) (setting [12]); 0% in test [4] (360 h, visually evaluated after 13 to 15 d, read-out: Plant response rating, Sedge, Umbrella (0 to 100 scale where 0 is no effect and 100 is complete control)).

For the compound `Cc1ccc([C@H]2CNC(=O)[C@@H]2C(=O)Nc2c(F)cccc2F)cc1C` [Compound 1247], the pest or weed control at 125 g/ha in test [1] (setting [10]) came to 70%. Also, the pest or weed control at 500 g/ha in test [1] (setting [11]) was 90%. In addition, the pest or weed control at 250 g/ha in test [2] (setting [12]) was 55%; in test [3] (setting [12]) it was 20%; in the test with rice (Oryra sativa) (setting [12]), 0%; in test [4] (setting [13]), 0%.

As for `Cc1c(F)cccc1NC(=O)[C@H]1C(=O)NC[C@@H]1c1cccc2c1OC(F)(F)O2` [Compound 1305], the pest or weed control at 125 g/ha in test [1] (setting [10]) was determined as 70%. In test [1] (setting [11]), the pest or weed control at 500 g/ha amounted to 90%. For the same compound, the pest or weed control at 250 g/ha in test [2] (setting [12]) was determined as 70%; in test [3] (setting [12]), 20%; with rice (Oryra sativa) (setting [12]), 0%; in test [4] (setting [13]), 0%.

For `CN1C[C@H](c2ccc(C(F)F)cc2)[C@@H](C(=O)Nc2ccccc2F)C1=O` [Compound 803], in test [1] (setting [5]), the pest or weed control at 125 g/ha stood at 90%. Besides, the pest or weed control at 31 g/ha in test [1] (setting [9]) was determined as 70%. The pest or weed control at 250 g/ha in test [2] (setting [7]) came to 100%; in test [3] (setting [7]), 90%; in the test with rice (Oryra sativa) (setting [7]), 55%; in test [4] (setting [8]) it was 0%.
